Measured values published in patent publication US11613750B2, “Methods of reducing virus molecule levels” (priority 2019, dated 2023).

Assays:
HCoV-OC43 = assay: OC43 virion RNA, Branched DNA assay, infected HCT8 cells; assay type: cell-based, human coronavirus OC43; details: for OC43 vRNA reduction siRNA and siGRP78: 10 nM siRNA along with 10 nM of siRNA targeting GRP78, HCT8 cells; for OC43 vRNA reduction: 10 nM siRNA, HCT8 cells
Experimental: The siRNAs were transfected in the HCT8 cells at a final concentration of 10 nM. A positive control for the inhibition of Coronavirus infection, Remdesivir (Rem), was used at 0.9 μM. The virion RNAs (vRNAs) were quantified using a Branched DNA assay specific for OC43 RNA.
The two siRNAs are those referred to by compound number (see Table 2) in the horizontal bar, along with siRNA targeting GRP78, siGRP78. A positive control for the inhibition of Coronavirus infection, Remdesivir (Rem), was used at 0.9 μM. The vRNAs were quantified using a Branched DNA assay specific for OC43 RNA.
The siRNAs listed in Table 2 were transfected into human colon epithelial HCT8 cells and the amount of OC43 virion produced was quantified. In these assays, the OC43 vRNA was quantified using a Branched DNA assay (QuantiGene gene expression assay: ThermoFisher). As a positive inhibitory control, the infected cells were treated with Remdesivir. […] Examples of the inhibition of OC43 vRNA are illustrated in FIG. 5A.
A combination of siRNAs targeting the host factor should more robustly reduce OC43 virion production. To illustrate this, HCT8 cells were transfected with 10 nM of siRNAs from Table 2 along with 10 nM of siRNA targeting GRP78. The virion RNAs produced were quantified using the Branched DNA assay. […] A combination of siRNAs targeting host factors GRP78, SRSF1, RPLP1 and RPLP2 can lead to significant reduction in the production of human Coronavirus virion RNA from infected cells.

RPLP1 protein = assay: Target protein reduction by Western blot in HepG2.2.15 cells; assay type: cell-based, human; details: 10 nM siRNA, 72 h
Experimental: (§1) The host factors likely function in viral infection as proteins. Therefore, we determined whether the siRNAs could decrease the amounts of the target protein. Cell transfected with 10 nM of each siRNA for 72 h were lysed and the target proteins identified using Western blots probed with target-specific antibodies. The effective siRNAs described in Table 3 reduced the levels of the proteins by between 28 and 92% of the mock-treated samples. The reduction in the proteins is less than the reduction of the target mRNA, likely due to the proteins have prolonged half-life and that more time is needed for their degradation. […] We reason that this is due to RPLP1 and RPLP2 functioning as heterodimers such that a decrease of one protein increases the vulnerability of the other protein to degradation. Similar concomitant decrease of the proteins was reported by Campos et al. (17). Finally, the levels of two cellular proteins that are not targeted by the siRNAs, P54nrb and GAPDH, were unaffected.

RPLP1 mRNA = assay: Target mRNA reduction by RT-qPCR in HepG2.2.15 cells; assay type: cell-based, human; details: 10 nM siRNA
Description: (§2) The siRNAs identified as described in Example A6 should function by a mechanism that includes being loaded in the RISC complex to cleave the cognate mRNA, leading to the degradation of the mRNA. To examine whether the siRNAs are effective in reducing the target mRNA, we used reverse transcription coupled with quantitative polymerase chain reaction (RT-qPCR) to assess the level of the target mRNA in HepG2.2.15 cells. All 32 siRNAs described in Table 2 reduced the mRNA by more than 75% (Table 3).

HepG2.2.15 cells = assay: HepG2.2.15 cell viability, CellTiter-Glo; details: for CC50: read-out: CC50, HepG2.2.15 cell viability, highest concentration tested 80 nM
Experimental: (§3) Cell viability was assessed by ATP levels determined using the CellTiter-Glo reagent and the results normalized to the level in mock-treated cells. HBsAg levels were quantified using ELISA and the data normalized to the level in the mock-treated cells.
The effects on cell viability were quantified using the CellTiter-Glo reagent. All data were normalized to the amount of protein produced by mock-treated cells.
(§4) The library of siRNAs of Example A5 were tested for the reduction of HBsAg secreted by HepG2.2.15 cells and in HBV virions.

HBsAg = details: HepG2.2.15 cells; for EC50: read-out: EC50, Extracell. HBsAg reduction
Experimental: as §3
The cellular proteins GRP78/BIP, SRSF1, HNRNPA2B1, RPLP1, and RPLP2 were identified as having roles in HBV replication and infection. Various siRNAs and combinations thereof targeting the RNAs encoding these proteins were contacted with HepG2.2.15 cells at a final concentration of 7.5 nM.
The EC50 values of several siRNAs and combinations of siRNAs targeting HNRNPA2B1, GRP78, RPLP1, RPLP2, and/or SRSF1 were determined with respect to the ability to reduce HBsAg levels in HepG2.2.15 cells.
(§5) The ability of siRNAs targeting host factors that then results in the reduced production of multiple HBV molecules was evaluated by quantifying the amount of HBsAg, HBeAg, and Core protein produced by HepG2.2.15 cells after contacting with 10 nM of siRNAs that target HNRNPA2B1, GRP78, RPLP1, RPLP2, and SRSF1. We also contacted the cells with 5 nM of each set of siRNAs that targets both RPLP1 and RPLP2. The level of HBsAg, HBeAg, and Core were all determined using ELISAs.
as §4

HBeAg = details: for HBeAg reduction HepG2.2.15 cells: 10 nM siRNA transfected into cells
Experimental: HBeAg in the cell culture media was assessed using ELISAs.
as §5, §4

RPLP2 protein = assay: Target protein reduction by Western blot in HepG2.2.15 cells; assay type: cell-based, human; details: 10 nM siRNA, 72 h
Experimental: as §1

RPLP2 mRNA = assay: Target mRNA reduction by RT-qPCR in HepG2.2.15 cells; assay type: cell-based, human; details: 10 nM siRNA
Description: as §2

Row | Substance | OC43 vRNA reduction siRNA and siGRP78 (HCoV-OC43) [%] | OC43 vRNA reduction (HCoV-OC43) [%] | Target protein reduction in HepG2.2.15 cells (RPLP1 protein) [%] | Target RNA reduction in HepG2.2.15 cells (RPLP1 mRNA) [%] | CC50 (HepG2.2.15 cells) [nM] | cytotoxicity / cell viability, siRNA library (HepG2.2.15 cells; up to the highest concentration tested, 80 nM) | HBsAg level, dose response (HBsAg; FIG. 5A) | EC50 (HBsAg) [nM] | HBeAg reduction HepG2.2.15 cells (HBeAg) [%] | HBeAg level, siRNA library (HBeAg; HepG2.2.15 cells, Example A6, FIG. 5A) | Target protein reduction in HepG2.2.15 cells (RPLP2 protein) [%] | Target RNA reduction in HepG2.2.15 cells (RPLP2 mRNA) [%]
1 | 24 (GCAAAGAAAGAAGAAUCCGTTCGGAUUCUUCUUUCUUUGCTT; siRNA; Self-complementary hairpin strand, chemistry not given here, further chemistry not given here; listed as Homo sapiens) [compound 24] | 94 ± 4 | 89 ± 8 | 48 ± 3 | 80 ± 1 | > 80 | without affecting cell viability | dose-dependent reduction of HBV S-antigen (HBsAg) | 0.359 | 66 ± 2 | inhibited the levels of HBsAg and HBeAg | – | –
2 | 31 (UUUGGCCUGGCUUGUUUGCAAUUUUGCAAACAAGCCAGGCCAAAUU; siRNA; Self-complementary hairpin strand, chemistry not given here, further chemistry not given here; listed as Homo sapiens) [compound 31] | 82 ± 6 | 82 ± 4 | 37 ± 7 | 84 ± 4 | > 80 | – | – | 0.012 | – | – | – | –
3 | 33 (UUGGUCUUUUUGACUAAACCUUUAGGUUUAGUCAAAAAGACCAAUU; siRNA; Self-complementary hairpin strand, chemistry not given here, further chemistry not given here; listed as Homo sapiens) [compound 33] | – | – | 28 ± 4 | 83 ± 6 | > 80 | – | – | 1.54 | – | – | – | –
4 | 45 (GGAAAAAACAUUGAAGACGUCUUGACGUCUUCAAUGUUUUUUCCUU; siRNA; Self-complementary hairpin strand, chemistry not given here, further chemistry not given here; listed as Homo sapiens) [compound 45] | 89 ± 2 | – | – | – | > 80 | – | – | 0.013 | 42 ± 5 | – | 61 ± 7 | 98 ± 1
5 | 46 (GAAAGAUGAGAAGAAGGAGGAUUUCCUCCUUCUUCUCAUCUUUCUU; siRNA; Self-complementary hairpin strand, chemistry not given here, further chemistry not given here; listed as Homo sapiens) [compound 46] | 87 ± 4 | – | – | – | > 80 | – | – | 1.1 | 44 ± 5 | – | 56 ± 8 | 98 ± 1
6 | 47 (UGGCCUUUUUGAUUAAAUUTTAAUUUAAUCAAAAAGGCCAAA; siRNA; Self-complementary hairpin strand, chemistry not given here, further chemistry not given here; listed as Homo sapiens) [compound 47] | 89 ± 2 | – | – | – | > 80 | – | – | 0.07 | 38 ± 5 | – | 67 ± 5 | 97 ± 3
7 | 48 (GCGCCAAGGACAUCAAGAATTUUCUUGAUGUCCUUGGCGCAA; siRNA; Self-complementary hairpin strand, chemistry not given here, further chemistry not given here; listed as Homo sapiens) [compound 48] | 88 ± 5 | – | – | – | > 80 | – | – | 0.1 | 32 ± 5 | – | 54 ± 8 | 97 ± 0
8 | 49 (AAACAUUGAAGACGUCAUUTTAAUGACGUCUUCAAUGUUUTT; siRNA; Self-complementary hairpin strand, chemistry not given here, further chemistry not given here; listed as Homo sapiens) [compound 49] | 91 ± 3 | – | – | – | > 80 | – | – | 0.026 | 32 ± 6 | – | 59 ± 4 | 98 ± 1
9 | 50 (CGACCGGCUCAACAAGGUUTTAACCUUGUUGAGCCGGUCGTC; siRNA; Self-complementary hairpin strand, chemistry not given here, further chemistry not given here; listed as Homo sapiens) [compound 50] | 91 ± 2 | – | – | – | > 80 | – | – | 0.095 | 42 ± 5 | – | 48 ± 2 | 98 ± 1
10 | 51 (GAAGAUCUUGGACAGCGUGTTCACGCUGUCCAAGAUCUUCTT; siRNA; Self-complementary hairpin strand, chemistry not given here, further chemistry not given here; listed as Homo sapiens) [compound 51] | 90 ± 2 | – | – | – | > 80 | – | – | 0.1 | 32 ± 4 | – | 56 ± 5 | 98 ± 0
11 | 52 (CAAGGUUAUCAGUGUGCUGTTCAGCACACUGAUAACCUUGTT; siRNA; Self-complementary hairpin strand, chemistry not given here, further chemistry not given here; listed as Homo sapiens) [compound 52] | 91 ± 2 | – | – | – | > 80 | – | – | 0.06 | 54 ± 5 | – | 58 ± 1 | 98 ± 1
